Laboratory results as given in patent EP0248151A1, “Pantothenic acid as an antimutagenic agent” (SUNTORY LIMITED, priority 1983, dated 1984).

What was measured:
[1] = test system: Salmonella typhimurium TA l00; assay: Ames test (preincubation method), inactivation of mutagenicity of MNNG, without S9; assay type: cell-based
Protocol: (§1) One of the methods for determining carcinogenicity that have recently been established is the Salmonella test (also known as the Ames test) that uses the requirement for histidine as an evaluation index (Ames, B.N. et al.: Mutation Res., Vol. 3l, 347, l975). […] Therefore, the present inventors chose to use the Ames test as a means for screening various compounds to discover cancer control substances.
(§2) • (i) Method: The preincubation method shown in Sugimura & Nagao: Chemical Mutagens, Vol. 6, page 4l, l98l was used. • (ii) Microorganism: Histidine requiring Salmonella typhimurium strains TA l00 and TA 98 (hereunder TA l00 and St TA 98) were used. • (iii) Preparation of samples • a) MNNG: To MNNG samples (l µg/plate), coenzyme A was added in amounts of 0.0l µM, 0.l µM and l.0 µM/plate. • b) Benzo[a]pyrene: To benzo[a]pyrene samples (l0 µg/plate), coenzyme A was added in amounts of 0.0009, 0.009 and 0.09µM/plate. • (iv) Measuring mutagenicity
(§3) To l00 µl of each of the samples prepared in (iii) a), 500 µl of l00 mM sodium phosphate buffer (pH 7.4) and l00 µl of a culture of St TA l00 were added. To l00 µl of each of the samples prepared in (iii) b), 500 µl of S9 mix (rat liver homogenate) and l00 µl of a culture of TA 98 were added. […] After incubation at 37°C for 48 hours, the number of colonies on the plates was counted as revertants. […]

[2] = test system: Salmonella typhimurium TA 98; assay: Ames test (preincubation method), inactivation of mutagenicity of benzo[a]pyrene, with S9 mix (rat liver homogenate); assay type: cell-based
Protocol: as §1, §2, §3

[3] = test system: St TA l00 or St TA 98 strain; assay: Ames test (preincubation method), inactivation of mutagenicity of carcinogens/mutagens by pantothenates, without S9; assay type: cell-based, Salmonella typhimurium
Protocol: as §2
• (i) Method: See Example l. • (ii) Microorganism: See Example l. • (iii) Preparation of samples • a) The carcinogenic or mutagenic substances used in Example 3 and their concentrations are listed in Table 5. [formula] • b) Adding pantothenates (Na and Ca salts) Pantothenates were added to each of the carcinogenic or mutagenic samples in amounts of 0, 0.005, 0.05, and 5.0 µM/plate. • (iv) Measuring mutagenicity To l00 µl of each of the samples prepared in (iii) a), 500 µl of l00 mM sodium phosphate buffer (pH 7.4) was added. Thereafter, l00 µl of a culture of St TA l00 or St TA 98 strain was added as indicated in Table 6. [formula] The respective mixtures were shaken for 20 minutes at 37°C. After adding 2.5 ml of a soft agar solution, the mixtures were spread on minimum glucose agar plates which had been supplemented with 0.l µM/plate of histidine for causing several […] of the cells. After incubation at 37°C for 48 hours, the number of colonies on the plates was counted as revertants.

CC(C)(COP(=O)(O)OP(=O)(O)OC[C@H]1O[C@@H](n2cnc3c(N)ncnc32)[C@H](O)[C@@H]1OP(=O)(O)O)[C@@H](O)C(=O)NCCC(=O)NCCS [Coenzyme A, coenzyme A]
inhibition of the mutagenicity of MNNG ([1]; 150 mols of coenzyme A added to 1 mol of MNNG): completely | inactivation of the mutagenicity of benzo[a]pyrene ([2]; 10 mols of coenzyme A added to 1 mol of benzo[a]pyrene): about 90%

Cc1ncc(COP(=O)(O)O)c(C=O)c1O [Pyridoxal-5′-phosphoric acid, pyridoxal-5′-phosphoric acid]
inhibition of the mutagenicity of MNNG ([1]; 150 mols of compound added to 1 mol of MNNG): about 50% | inactivation of the mutagenicity of benzo[a]pyrene ([2]; 25 mols of compound added to 1 mol of benzo[a]pyrene): about 80%

CC(C)(CO)[C@@H](O)C(=O)NCCC(=O)[O-].[Na+] [Sodium pantothenate, sodium pantothenate]
inactivation of the mutagenicity of methylglyoxal ([3]; 18 mols of sodium pantothenate added to 1 mol of methylglyoxal): 77% | inactivation of the mutagenicity of adriamycin ([3]; 2273 mols of sodium pantothenate added to 1 mol of adriamycin): 59% | inactivation of the mutagenicity of AF-2 ([3]; 6250 mols of sodium pantothenate added to 1 mol of AF-2): 58%

calcium pantothenate
inactivation of the mutagenicity of MNU ([3]; 6 mols of calcium pantothenate added to 1 mol of MNU): completely | inactivation of the mutagenicity of MNNG ([3]; 73 mols of calcium pantothenate added to 1 mol of MNNG): 48%
